Data published in patent US9205091B2, “Diazeniumdiolated compounds, pharmaceutical compositions, and method of treating cancer” (The United States of America, as represented by the …, priority 2009, dated 2015).

How the values were obtained:
A549/CCL185 = experiment: MTT proliferation assay, JS-K 48 h (Example 3); format: cell-based, human; details: 10 concentrations 50 nM to 50 μM
Protocol: (§1) JS-K is synthesized as described previously (Saavedra et al., J. Org. Chem., 66: 3090-3098(2001)). Cell lines are obtained from the American Type Culture Collection (Manassas, Va.) and cultured according to the supplier's protocol. For proliferation assays cells are seeded at 2×10^4 per well in 96-well plates and allowed to adhere for 24 h. JS-K is prepared as 10 mM stock solution in DMSO. Increasing drug concentrations in 10 μL of PBS are added to 100 μL of the culture medium for 48 h. MTT assay (Promega, Madison, Wis.) is performed according to the manufacturer's protocol. Each concentration is represented in six repeats, and the screening is performed as at least two independent experiments. IC50 values are calculated using Sigma Plot software (Systat Software, Chicago, Ill.).

H1355/CRL5865 = experiment: MTT proliferation assay, JS-K 48 h (Example 3); format: cell-based, human; details: 10 concentrations 50 nM to 50 μM
Protocol: as §1

H1373/CRL5866 = experiment: MTT proliferation assay, JS-K 48 h (Example 3); format: cell-based, human; details: 10 concentrations 50 nM to 50 μM
Protocol: as §1

H1395/CRL5868 = experiment: MTT proliferation assay, JS-K 48 h (Example 3); format: cell-based, human; details: 10 concentrations 50 nM to 50 μM
Protocol: as §1

H1568/CRL5876 = experiment: MTT proliferation assay, JS-K 48 h (Example 3); format: cell-based, human; details: 10 concentrations 50 nM to 50 μM
Protocol: as §1

H1693/CRL5887 = experiment: MTT proliferation assay, JS-K 48 h (Example 3); format: cell-based, human; details: 10 concentrations 50 nM to 50 μM
Protocol: as §1

H1703/CRL5889 = experiment: MTT proliferation assay, JS-K 48 h (Example 3); format: cell-based, human; details: 10 concentrations 50 nM to 50 μM
Protocol: as §1

H1734/CRL5891 = experiment: MTT proliferation assay, JS-K 48 h (Example 3); format: cell-based, human; details: 10 concentrations 50 nM to 50 μM
Protocol: as §1

H1792/CRL5895 = experiment: MTT proliferation assay, JS-K 48 h (Example 3); format: cell-based, human; details: 10 concentrations 50 nM to 50 μM
Protocol: as §1

H1944/CRL5907 = experiment: MTT proliferation assay, JS-K 48 h (Example 3); format: cell-based, human; details: 10 concentrations 50 nM to 50 μM
Protocol: as §1

H2023/CRL5912 = experiment: MTT proliferation assay, JS-K 48 h (Example 3); format: cell-based, human; details: 10 concentrations 50 nM to 50 μM
Protocol: as §1

H2030/CRL5914 = experiment: MTT proliferation assay, JS-K 48 h (Example 3); format: cell-based, human; details: 10 concentrations 50 nM to 50 μM
Protocol: as §1

H2122/CRL5985 = experiment: MTT proliferation assay, JS-K 48 h (Example 3); format: cell-based, human; details: 10 concentrations 50 nM to 50 μM
Protocol: as §1

H2126/CRL5925 = experiment: MTT proliferation assay, JS-K 48 h (Example 3); format: cell-based, human; details: 10 concentrations 50 nM to 50 μM
Protocol: as §1

H322/CRL5806 = experiment: MTT proliferation assay, JS-K 48 h (Example 3); format: cell-based, human; details: 10 concentrations 50 nM to 50 μM
Protocol: as §1

H441/HTB174 = experiment: MTT proliferation assay, JS-K 48 h (Example 3); format: cell-based, human; details: 10 concentrations 50 nM to 50 μM
Protocol: as §1

H460/HTB177 = experiment: MTT proliferation assay, JS-K 48 h (Example 3); format: cell-based, human; details: 10 concentrations 50 nM to 50 μM
Protocol: as §1

H838/CRL5844 = experiment: MTT proliferation assay, JS-K 48 h (Example 3); format: cell-based, human; details: 10 concentrations 50 nM to 50 μM
Protocol: as §1

H1703 cells [1] = experiment: Total glutathione / GSSG content after JS-K treatment; format: cell-based, human; details: JS-K 1 μM, 1 h
Protocol: (§2) H1703 or H1944 cells are plated in 6-well plates at 6×10^5 per well. Cells are treated with JS-K for 1 h at 1 μM (H1703) or 10 μM (H1944). After treatment, cells are washed with PBS, scraped into PBS and collected by centrifugation at 800 g for 10 min. The pellets are resuspended in 80 μL of 10 mM HCl and lysed by two successive rounds of freeze and thawing. Twenty μL of a 5% 5-sulfosalicylic acid solution is added to the lysate. The precipitate is removed by centrifugation at 8,000 g for 10 min, and the supernatant is analyzed for total glutathione content using total glutathione quantification kit (Dojindo, Rockville, Md.) according to the manufacturer's protocol. To measure GSSG concentration, cells are treated and lysed in accordance with the procedure above. The lysate is then neutralized with 0.1 M NaOH and treated with 4-vinylpyridine at a final concentration of 50 mM for 30 min.

H1944 cells [2] = experiment: as above; format: cell-based, human; details: JS-K 10 μM, 1 h
Protocol: as §2

H1703 cells [3] = experiment: H1703 xenograft in athymic NCr-nu/nu mice, JS-K (Example 3); format: in vivo; details: 6 μmol/kg i.v., three times a week for three weeks
Protocol: H1944 or H1703 cells are injected at 5×10^6 s.c. into a flank of 7-week-old female athymic NCr-nu/nu mice (Charles River, Wilmington, Mass.). The drug injections are initiated when the tumors reached 2×2×2 mm (typically 3-4 weeks). JS-K is formulated in Pluronic P123 (P123) (BASF, Florham Park, N.J.) micelles. Animals are treated three times a week for three weeks with i.v. tail vein injections of either vehicle (2.25% P123 in PBS) or JS-K (6 μmol/kg in the vehicle). Tumors are measured using a caliper twice a week, and the tumor volumes are calculated using a formula for ellipsoid volume, π/6×L×W×H (Tomayko and Reynolds, 1989). The non-parametric Mann-Whitney test is utilized for statistical comparisons of tumor volumes at each time point. Body weights are taken before each drug injection. Animals are sacrificed 2 h after the last drug injection. Blood is collected by cardiac puncture under isoflurane anesthesia, for testing for cytokines. Cytokines in serum are measured using a mouse Th1/2 multiplex assay (Meso Scale Discovery, Gaithersburg, Md.), according to the manufacturer's protocol. There were 9-13 mice/group at termination.

H1944 cells [4] = experiment: Intracellular ROS/RNS, CM-H2DCF-DA (DCF fluorescence); format: cell-based, human; details: up to 60 min
Protocol: Intracellular level of reactive oxygen/nitrogen species is quantified by the oxidation of the ROS/RNS-sensitive fluorophore 5-(and-6)-chloromethyl-2′,7′-dichlorodihydrofluorescein diacetate (CM-H2DCF-DA) (Invitrogen, Carlsbad, Calif.). Cells growing on 6-well plates (6×10^5/well) are loaded with 5 μM CM-H2DCF-DA in Hanks' balanced salt solution (HBSS) at 37° C. and 5% CO2. After 30 min of incubation, HBSS containing the probe is removed, cells are rinsed with HBSS and 3 mL of fresh HBSS is added to each well followed by addition of JS-K or DMSO as a control. After 30 min or 60 min the cells are collected by scraping in HBSS and 2′,7′-dichlorofluorescein (DCF) fluorescence is measured using a Perkin Elmer LS50B luminescence spectrometer with the excitation source at 488 nm and emission at 530 nm.

mitochondrial superoxide = experiment: Mitochondrial superoxide level, MitoSOX; format: cell-based, human
Protocol: Mitochondrial superoxide level is measured using MitoSOX fluorescent dye (Invitrogen, Carlsbad, Calif.), according to the manufacturer's protocol. Rotenone (10 μM) is used as a positive control.

Compound: CCOC(=O)N1CCN(/[N+]([O-])=N/Oc2ccc([N+](=O)[O-])cc2[N+](=O)[O-])CC1 [Compound 1]
- IC50 (A549/CCL185): 7.6 µM
- IC50 (H1355/CRL5865): 7.93 µM
- IC50 (H1373/CRL5866): 0.97 µM
- IC50 (H1395/CRL5868): 3.17 µM
- IC50 (H1568/CRL5876): 0.4 µM
- IC50 (H1693/CRL5887): 0.33 µM
- IC50 (H1703/CRL5889): 0.4 µM
- IC50 (H1734/CRL5891): 0.36 µM
- IC50 (H1792/CRL5895): 9.08 µM
- IC50 (H1944/CRL5907): 17.6 µM
- IC50 (H2023/CRL5912): 11.6 µM
- IC50 (H2030/CRL5914): 14.7 µM
- IC50 (H2122/CRL5985): 6.09 µM
- IC50 (H2126/CRL5925): 4.13 µM
- IC50 (H322/CRL5806): 8.71 µM
- IC50 (H441/HTB174): 1.01 µM
- IC50 (H460/HTB177): 7.61 µM
- IC50 (H838/CRL5844): 5.84 µM
- GSH μmol/mg protein (H1703 cells [1]): 1.27 μmol/mg protein
- GSSG μmol/mg protein (H1703 cells [1]): 0.042 μmol/mg protein
- GSH μmol/mg protein (H1944 cells [2]): 0.13 μmol/mg protein
- GSSG μmol/mg protein (H1944 cells [2]): 0.014 μmol/mg protein
- growth of xenografted tumor cells vs vehicle (H1703 cells [3]): significantly reduces growth
- DCF-reactive material (H1944 cells [4]): not
- mitochondrial superoxide generation (mitochondrial superoxide): increase
